The values that follow come from patent US11570987B2, “Pesticidal compounds and methods of use” (New York University, priority 2019, dated 2023).

The test system of series [1] is Drosophila melanogaster. Kind of series: Residual exposure knockdown bioassay on female fruit flies. In kind it is in vivo. The settings on record: for speed of action (lethality) of enantiomers and racemate, in words: fruit flies, different dosages (FIG. 9, FIG. 10).
Series [2] deals with Drosophila melanogaster. The series is described as above. The conditions noted are these: for KT50 against female Drosophila, comparison in words: dosage 1.06*10^−1 g/m^2, FIG. 8; for observed symptoms of exposed flies: fruit flies; for KT50 (median knockdown time): female Drosophila melanogaster, 2.0±0.1 mg, logistic regression of knockdown-time curves; for Drosophila knockdown times, comparison in words: Example 5, FIG. 5. The class given is in vivo. The source says:
Each symbol of FIGS. 2A-C corresponds to one female. Dashed lines indicate logistic regression of knockdown-time curves. The median knockdown time for each curve is denoted by its intersection with the horizontal KT50 marker. FIG. 2D illustrates comparison of the knockdown speeds (1/KT50) relative to DDT I. Error bars represent 95% confidence intervals (CI). Values with the same letter have overlapping 95% Cls and differences are considered insignificant. Inset: Photo of a typical female fly.
Female Drosophila melanogaster were exposed to 2.0±0.1 mg of DFDT, MFDT and DDT separately, in their crystalline and amorphous forms. The insects were monitored with a video camera until the entire population ceased to move. The videos then were analyzed to determine the knockdown times—a proxy for lethality—for each individual insect (Videos S1-S5). […] KT50 values, the times required for death of 50% of the insects, are the standard for assessing insecticide lethality (the lifetimes of individual insects differ because of the random nature of their contact with insecticide surfaces and varied susceptibility of a population). Here, the KT50 values were calculated by logistic regression of knockdown-time curves. […] Knockdown speeds, reciprocals of KT50 values, decreased in inverse order (FIG. 2d). The amorphous forms are always faster than their respective crystalline counterparts, with a-DFDT the fastest. […] Overall, the lethalities of the different solid forms of a given compound, as deduced from their knockdown speeds, were inversely correlated with their thermodynamic stability.
The relationships between functional groups that are directly attached to the central carbon atom and Drosophila knockdown times are shown in FIG. 6. […] Physical state of the compound at room temperature, and the median knockdown time (KT50) against female Drosophila are denoted below each compound. The dosage for the residual bioassay was 1.06*10^−1 g/m^2.
Residual action, which refers to the length of time a compound or composition may exist in a particular environment and remain effective, is a good proxy for the insecticidal activity of a compound. Each crystalline form was ground to a particle size similar to that of the liquid particles prepared by fine mist spraying. Lethality measurements were performed in duplicate for each solid-state form, each accompanied by two controls (no insecticide). Each microcrystalline form was added to a 10.0 cm diameter polystyrene petri dish (2.0 mg per dish), which was subsequently shaken to disperse the microcrystals throughout the petri dish. Amorphous forms were prepared by fine mist spraying a stock solution containing 70.0 mg of the respective insecticide in 10.0 mL hexane onto the top and bottom of 10.0 cm diameter polystyrene petri dishes (two sprays=0.280 mL) and allowing the hexane to evaporate at room temperature, resulting in 2.0 mg of liquid insecticide in each petri dish. 25 female adults Drosophila were sedated with carbon dioxide and flies were transferred to each petri dish. The top of the dish was then placed over the bottom and the motion of the mosquitos or fruit flies was recorded with a video camera (Sony HDR-CX455). The knockdown time was measured for each individual, with knockdown associated with an insect laying on the bottom surface of the petri dish in a supine position without moving from its original position after 10 seconds.

Series [3] in a line: Stability of amorphous forms at room temperature. In kind it is physicochemical. From the text:
DFDT and MFDT were synthesized from trichloroacetate and para-fluorobenzaldehyde to give 1-(4-fluorophenyl)-2,2,2-trichloroethanol. Subsequent reaction with fluorobenzene or chlorobenzene afforded DFDT and MFDT, respectively. Two polymorphic crystalline forms of DFDT (DFDT-I, -II) and three polymorphic forms of racemic MFDT ((RS)-MFDT-I, -II, -III) were discovered. DFDT-I single crystals could be obtained from a variety of solvents and DFDT-II single crystals from diethyl ether. (RS)-MFDT-I could be crystallized from a variety of solvents. The (R)- and (S)-MFDT enantiomers were resolved by chromatography on a chiral stationary phase, and single crystals were grown from a variety of solvents. Curiously, single crystals of (RS)-MFDT-II and -III were obtained by crystallization from the melt at >30° C. and 25° C., respectively, using seed crystals of either the R or S isomers. These crystalline forms, six total, were characterized by single crystal X-ray diffraction (FIG. 1). […] The Tm of the enantiomorphs was 47° C. Amorphous DFDT (a-DFDT), prepared by supercooling melts or fine mist spraying of solutions, afforded broad X-ray scattering halos (FIG. 1H) and was stable for 25 days at room temperature. Amorphous resolved and racemic MFDT (a-(R)- and a-(S)-MFDT, and a-(RS)-MFDT, respectively; FIG. 1H) were stable for 10 days at room temperature. These observations contrast with a-DDT, which transformed to crystalline DDT Form I within 5 hours at room temperature.

For series [4], the system named is Anopheles quadrimaculatus. Kind of series: Knockdown bioassay on female Anopheles mosquitoes in coated petri dishes. The conditions noted are these: for knockdown speed, times faster than a-DDT: Anopheles and Aedes mosquitoes (FIG. 3F); for KT50: female Anopheles, 1.0±0.1 mg amorphous form in petri dish. The class given is in vivo. From the text: (§1) Each symbol corresponds to one female. Dashed lines indicate logistic regression of knockdown-time curves. The median knockdown time for each curve is denoted by its intersection with the horizontal KT50 marker. FIG. 3F illustrates the relative knockdown speeds of amorphs. Error bars represent 95% confidence intervals (CI). Values with the same letter have overlapping 95% Cls and differences are considered insignificant. Insets: Photos of typical Anopheles and Aedes mosquito females.
(§2) Female Anopheles and Aedes mosquitoes exposed to 1.0±0.1 mg of various crystalline forms followed the same knockdown trend as Drosophila, see Example 2, with KT50 values decreasing in the order DDT-I>(RS)-MFDT-I>DFDT-I>DFDT-II (FIGS. 3A and 3B). […] Female mosquitoes were introduced into petri dishes coated with 1.0±0.1 mg of the amorphous forms, and their motions recorded (Videos S8-S10). KT50 values for a-DFDT and a-(RS)-MFDT against Anopheles were 29 and 39 minutes, and against Aedes were 30 and 40 minutes, respectively (FIGS. 3C and 3D). Corresponding KT50 values for a-DDT were much larger (120 and 112 minutes). Accordingly, the knockdown speeds for a-DFDT and a-(RS)-MFDT are 4 and 3 times faster than a-DDT, respectively (FIG. 3F).

Another series concerns Aedes aegypti. Kind of series: Knockdown bioassay on female Aedes mosquitoes in coated petri dishes. The class given is in vivo. The conditions noted are these: 1.0±0.1 mg amorphous form in petri dish.
Text: as §1, §2

The test system of another series is rats. Kind of series: Acute oral toxicity, Fixed Dose Procedure (OECD Guideline 420). The class given is in vivo. The settings on record: for clinical symptoms: 5 animals; for clinical outcome of the animal in the pilot experiment: single animal. The protocol: (§3) Fixed Dose Procedure (OECD Guideline 420):
(§4) (RS)-MFTE and (RS)-PFTE were test under OECD, Test No. 420: Acute Oral Toxicity—Fixed Dose Procedure, OECD Guidelines for the Testing of Chemicals, Section 4, OECD Publishing, Paris (2002), which is hereby incorporated by reference in its entirety.
(§5) Groups of five young adult animals (rats) of one sex in a stepwise procedure using the fixed doses of 5, 50, 300 and 2000 mg/kg in the main study as shown in FIG. 12B. Most tests are likely to be completed with either one or two sighting study steps and one main study step, thus using between 5 and 7 animals. Up to 5 animals are used in a limit test.

Assay in series [5]: as above
The class given is in vivo, rats. The settings on record: in vivo; rat, acute oral. Here is the method: as §3, §4, §5

A value given as a limit tells only on which side of the number the result lay.

On to `O[C@H](c1c(F)c(F)c(F)c(F)c1F)C(Cl)(Cl)Cl` [(R)-PFTE, (R)-1-perfluorophenyl-2,2,2-trichloro-ethanol], for which the “speed of action against (RS)-PFTE, in words” value in the series with Drosophila melanogaster [1] (dosage below 1.06*10^−1/m^2) is on record as “faster in action than (RS)-PFTE”. Also, the “speed of action (lethality) of enantiomers and racemate, in words” value (from here on “speed of action (lethality) … in words”) in the series with Drosophila melanogaster [1] is on record as “always faster in action than (S)-PFTE”. The “speed of action against deltamethrin Form I, in words” value in the series with Drosophila melanogaster [1] (high dosage 1.06*10^−1/m^2 and above) is “slower in action than deltamethrin Form I”. In the series with Drosophila melanogaster [1] (low dosage 5.30*10^−3/m^2), the “speed of action against deltamethrin, in words” value is “faster in action than deltamethrin”.
With `Fc1ccc(C(c2ccc(F)cc2)C(Cl)(Cl)Cl)cc1` [DFDT, reference compound], in the series with Drosophila melanogaster [2], the “KT50 against female Drosophila, comparison in words” value (“KT50 against female Drosophila” for short) was “much larger”; the “observed symptoms of exposed flies” value is “induced hyperactivity followed by paralysis, and then death”.
On to `Fc1ccc(C(c2ccc(F)cc2)C(Cl)(Cl)Cl)cc1` [a-DFDT], for which the “KT50 (median knockdown time)” value in the series on Drosophila melanogaster [2] turned out to be 54 min. Besides, in series [3] (addition of 10 wt % PEG 100 emulsifier), the “time the amorphous form is stable” value is “at least 120 days”. Moreover, the “time the amorphous form was stable” value in series [3] (room temperature) was found to be 25 days. In series [4], the “knockdown speed, times faster than a-DDT” value is reported as 4 times and the KT50 amounted to 29 min. Also, the KT50 in the series on Aedes aegypti is 30 min.
Regarding `Clc1ccc(C(c2ccc(Cl)cc2)C(Cl)(Cl)Cl)cc1` [a-DDT, 1,1,1-trichloro-2,2-bis(4-chlorophenyl)ethane], in series [3] (room temperature), the “time to transformation to crystalline DDT Form I” value was no more than 5 h. For the same compound, the KT50 in series [4] amounted to 120 min; in the series with Aedes aegypti, 112 min.
A word on the LD50: it is the dose at which mortality reaches 50%. Low readings indicate a more toxic substance, high ones a less toxic substance. For the compound `OC(c1ccc(F)cc1)C(Cl)(Cl)Cl` (racemic) [(RS)-MFTE, 1-(4-fluorophenyl)-2,2,2-trichloro-ethanol], the “KT50 against female Drosophila” value in the series on Drosophila melanogaster [2] is “comparable to that of crystalline deltamethrin Form I”. In addition, the “speed of action (lethality) … in words” value in the series on Drosophila melanogaster [1] is “lies in between of (R) and (S)-MFTE”. In the series with rats (300 mg/kg b.w.), the necropsy findings entry is “no relevant changes were noted except for the spleen” and the clinical symptoms result is recorded as “only mild symptoms (underactivity)”. In addition, in the series with rats (2000 mg/kg b.w.), the necropsy findings result is “changes were seen mainly in the gastrointestinal tract” and the “clinical outcome of the animal in the pilot experiment” value is on record as “had to be euthanized 1 day after application”. The LD50 in series [5] lay in the range of 300 to 2000 mg/kg.
`OC(c1c(F)c(F)c(F)c(F)c1F)C(Cl)(Cl)Cl` (racemic) [(RS)-PFTE, 1-perfluorophenyl-2,2,2-trichloro-ethanol]: in the series on Drosophila melanogaster [2], the “Drosophila knockdown times, comparison in words” value is on record as “smaller than amorphous DFDT” and the “KT50 against female Drosophila” value is “comparable to that of crystalline deltamethrin Form I”. In the series with rats (300 mg/kg b.w.), the necropsy findings result is recorded as “no abnormal findings during necropsy” and the clinical symptoms entry was “no clinical symptoms except for soft feces”. In addition, in the series with rats (2000 mg/kg b.w.), the necropsy findings entry is given as “changes were seen mainly in the gastrointestinal tract” and the “clinical outcome of the animal in the pilot experiment” value is listed as “had to be euthanized on day 1 approx. 3 h after application”. Besides, the LD50 in series [5] was in the range of 300 to 2000 mg/kg.
With `Clc1ccc(C(c2ccc(Cl)cc2)C(Cl)(Cl)Cl)cc1` [DDT, 1,1,1-trichloro-2,2-bis(4-chlorophenyl)ethane, reference compound], in the series on Drosophila melanogaster [2], the “KT50 against female Drosophila” value was “much larger”; the “observed symptoms of exposed flies” value was “induced hyperactivity followed by paralysis, and then death”.
Consider `OC(c1ccc(C(F)(F)F)cc1)C(Cl)(Cl)Cl` (stereo not drawn) [TFMTE, 1-(4-(trifluoromethyl)phenyl)-2,2,2-trichloro-ethanol], for which the “Drosophila knockdown times, comparison in words” value in the series on Drosophila melanogaster [2] is recorded as “faster than DDT Form I, but not as fast as PFTE”.
For the compound `Fc1ccc(C(c2ccc(Cl)cc2)C(Cl)(Cl)Cl)cc1` (stereo not drawn) [MFDT, 1,1,1-trichloro-2,2-(4-chlorophenyl)-(4-fluorophenyl)-ethane], the “observed symptoms of exposed flies” value with Drosophila melanogaster [2] is “induced hyperactivity followed by paralysis, and then death”.
For `Fc1ccc(C(c2ccc(Cl)cc2)C(Cl)(Cl)Cl)cc1` (racemic) [a-(RS)-MFDT, 1,1,1-trichloro-2,2-(4-chlorophenyl)-(4-fluorophenyl)-ethane], the “time the amorphous form was stable” value in series [3] (room temperature) is recorded as 10 days. For the same compound, the “knockdown speed, times faster than a-DDT” value in series [4] came to 3 times. Further, the KT50 in series [4] is 39 min; in the series with Aedes aegypti, 40 min.
`O[C@H](c1ccc(F)cc1)C(Cl)(Cl)Cl` [(R)-MFTE, (R)-1-(4-fluorophenyl)-2,2,2-trichloro-ethanol]: the “speed of action against deltamethrin Form I, in words” value in the series with Drosophila melanogaster [1] (dosage above 5.30*10^−3/m^2) is “even faster in action than deltamethrin Form I”. For the same compound, the “speed of action (lethality) … in words” value in the series with Drosophila melanogaster [1] is reported as “always faster in action than (S)-MFTE”.
For the compound `CC(O)(c1c(F)c(F)c(F)c(F)c1F)C(Cl)(Cl)Cl` (stereo not drawn) [PFTP, 2-(perfluorophenyl)-1,1,1-trichloro-propan-2-ol], the “KT50 against female Drosophila” value with Drosophila melanogaster [2] is recorded as “comparable to that of crystalline deltamethrin Form I”.
Take `Fc1ccc(C(c2ccc(Cl)cc2)C(Cl)(Cl)Cl)cc1` [a-(R)-MFDT, 1,1,1-trichloro-2,2-(4-chlorophenyl)-(4-fluorophenyl)-ethane]: the “time the amorphous form was stable” value in series [3] (room temperature) worked out at 10 days.
With `Clc1ccc(C(c2ccc(Cl)cc2)C(Cl)(Cl)Cl)cc1` [DDT-I, 1,1,1-trichloro-2,2-bis(4-chlorophenyl)ethane, reference compound], the “KT50 (median knockdown time)” value with Drosophila melanogaster [2] was 261 min.
